Measurements: PubChem BioAssay (NCI)
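How tested: cells in 96-well plates exposed to compound for 48 hours at five concentrations. The concentration for full growth arrest is given as TGI.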

Columns and labels:
Experiment in all cases: DTP human tumour cell line panel, 48 h
ACHN renal = test system: ACHN renal
HCC-2998 colon = test system: HCC-2998 colon
HCT-116 colon = test system: HCT-116 colon
HOP-92 NSCLC = test system: HOP-92 NSCLC
HS 578T breast = test system: HS 578T breast
K-562 leukemia = test system: K-562 leukemia
KM12 colon = test system: KM12 colon
M14 melanoma = test system: M14 melanoma
MCF7 breast = test system: MCF7 breast
NCI-H460 lung = test system: NCI-H460 lung
OVCAR-3 ovarian = test system: OVCAR-3 ovarian
OVCAR-4 ovarian = test system: OVCAR-4 ovarian
OVCAR-5 ovarian = test system: OVCAR-5 ovarian
PC-3 prostate = test system: PC-3 prostate
RXF 393 renal = test system: RXF 393 renal
SF-295 CNS = test system: SF-295 CNS
SK-MEL-2 melanoma = test system: SK-MEL-2 melanoma
SR leukemia = test system: SR leukemia
UACC-62 melanoma = test system: UACC-62 melanoma
UO-31 renal = test system: UO-31 renal

Compound | TGI (ACHN renal) [µM] | TGI (HCC-2998 colon) [µM] | TGI (HCT-116 colon) [µM] | TGI (HOP-92 NSCLC) [µM] | TGI (HS 578T breast) [µM] | TGI (K-562 leukemia) [µM] | TGI (KM12 colon) [µM] | TGI (M14 melanoma) [µM] | TGI (MCF7 breast) [µM] | TGI (NCI-H460 lung) [µM] | TGI (OVCAR-3 ovarian) [µM] | TGI (OVCAR-4 ovarian) [µM] | TGI (OVCAR-5 ovarian) [µM] | TGI (PC-3 prostate) [µM] | TGI (RXF 393 renal) [µM] | TGI (SF-295 CNS) [µM] | TGI (SK-MEL-2 melanoma) [µM] | TGI (SR leukemia) [µM] | TGI (UACC-62 melanoma) [µM] | TGI (UO-31 renal) [µM]
NC(=O)NC1NC(=O)NC1=O (stereo not given) | > 100 | > 100 | > 100 | > 100 | > 100 | > 100 | > 100 | > 100 | > 100 | > 100 | > 100 | > 100 | > 100 | > 100 | > 100 | > 100 | > 100 | > 100 | > 100 | > 100
CCOC(=O)C1(CO)CSCCSC1 | > 100 | > 100 | > 100 | > 100 | > 100 | > 100 | > 100 | – | > 100 | > 100 | – | – | – | > 100 | > 100 | > 100 | – | > 100 | – | > 100
N=C1C(=N)c2ccccc2-c2ccccc21.[Cl-].[Ru+2].c1cnc2c(c1)ccc1cccnc12.c1cnc2c(c1)ccc1cccnc12 | 76.6 | > 100 | 88.8 | 67.9 | – | 78.9 | > 100 | 43.3 | – | > 100 | 68.6 | 77.7 | > 100 | – | > 100 | > 100 | 91.4 | > 100 | > 100 | > 100
CCOC(=O)/C=C/CC(C)(C)COC(C)=O | > 10 | > 10 | > 10 | – | > 10 | > 10 | > 10 | > 10 | > 10 | > 10 | > 10 | > 10 | > 10 | > 10 | > 10 | > 10 | > 10 | > 10 | > 10 | > 10
CC(=O)c1c(-c2ccc(Cl)cc2)c(-c2ccc(Cl)cc2)n[nH]c1=O | 66.1 | > 100 | > 100 | > 100 | > 100 | > 100 | > 100 | > 100 | > 100 | > 100 | 79.8 | 94.8 | > 100 | > 100 | > 100 | > 100 | 81.3 | > 100 | 43.3 | –
C=C(C)C1CC=C(C)C(=O)C1 (stereo not given) | > 100 | > 100 | > 100 | > 100 | > 100 | > 100 | > 100 | > 100 | > 100 | > 100 | > 100 | > 100 | > 100 | > 100 | – | > 100 | > 100 | > 100 | – | > 100
CCC(C)C(=O)OC1C(=O)OC2CC3C(C)=CC(=O)C(O)C3(C)C3C4(O)OCC23C1C(C)C4O (stereo not given) | 0.257 | 0.227 | 1.4 | 0.205 | 0.275 | – | 0.133 | 0.0481 | > 100 | 0.659 | 0.124 | 0.262 | – | 0.481 | – | 0.126 | 0.184 | – | 0.188 | 0.278
Cc1[nH]c(=O)[nH]c(=O)c1/C=C/C(=O)NC(CO)CC(C)C (stereo not given) | – | > 375 | > 375 | > 343 | – | > 237 | > 375 | – | > 375 | > 187 | > 375 | > 375 | > 375 | – | > 375 | > 375 | > 375 | – | > 375 | > 375
COc1ccc(C2C(C(=O)O)=C(CO)Oc3cc4c(cc32)OCO4)cc1 (stereo not given) | > 100 | – | > 100 | > 100 | – | – | – | > 100 | – | > 100 | > 100 | > 100 | – | – | > 100 | > 100 | > 100 | – | > 100 | > 100
NCC(Cl)C(O)c1cnc(N)[nH]1 (stereo not given) | – | 5.12 | > 34.5 | 91.4 | – | > 100 | 2.96 | – | > 65.5 | > 44.1 | 16.2 | 10.2 | 20.6 | – | 4.7 | 52.6 | 18.3 | – | 63 | 6.38
